Legend:
[1] = Cytotoxicity against human KCI-MOH1 cells measured after 8 days; type: functional, cell-based; conditions: KCI-MOH1, 192 h
Ca-Ski = test: Cytotoxicity against human Ca-Ski cells measured after 8 days; type: functional, cell-based; conditions: 192 h
[2] = Cytotoxicity against human COLO-704 cells measured after 8 days; type: functional, cell-based; conditions: COLO 704, 192 h
[3] = Cytotoxicity against human KP-3L cells measured after 8 days; type: functional, cell-based; conditions: 192 h
SK-HEP1 = test: Cytotoxicity against human SK-HEP1 cells measured after 8 days; type: functional, cell-based; conditions: SK-HEP1, 192 h
[4] = Cytotoxicity against human NCE-G 44 cells measured after 8 days; type: functional, cell-based; conditions: NCE-G 44, 192 h
A2780 = test: Cytotoxicity against human A2780 cells measured after 8 days; type: functional, cell-based; conditions: A2780, 192 h
[5] = Cytotoxicity against human SC1 cells measured after 8 days; type: functional, cell-based; conditions: SC-1, 192 h
OE33 = test: Cytotoxicity against human OE33 cells measured after 8 days; type: functional, cell-based; conditions: OE33, 192 h
G-401 = test: Cytotoxicity against human G-401 cells measured after 8 days; type: functional, cell-based; conditions: G-401, 192 h
143B = test: Cytotoxicity against human 143B cells measured after 8 days; type: functional, cell-based; conditions: 192 h
BXPC-3 = test: Cytotoxicity against human BXPC-3 cells measured after 8 days; type: functional, cell-based; conditions: BXPC-3, 192 h
KYSE-150 cell line = test: Cytotoxicity against human KYSE-150 cell line measured after 8 days; type: functional, cell-based; conditions: KYSE-150, 192 h
PC-9 = test: Cytotoxicity against human PC-9 cells assessed as decrease in drug tolerant population supplemented with fresh medium containing compound every 3 days for 9 days in presence of erlotinib by Beckman Coulter counting method; type: functional, cell-based; conditions: time 9.0 day
[6] = Cytotoxicity against human NCE-G 142 cells measured after 8 days; type: functional, cell-based; conditions: NCE-G 142, 192 h
OCI-AML-3 = test: Cytotoxicity against human OCI-AML-3 cells measured after 8 days; type: functional, cell-based; conditions: OCI-AML-3, 192 h
SK-N-BE(2) = test: Cytotoxicity against human SK-N-BE(2) cells measured after 8 days; type: functional, cell-based; conditions: SKNBE2, 192 h
KINGS-1 = test: Cytotoxicity against human KINGS-1 cells measured after 8 days; type: functional, cell-based; conditions: KINGS-1, 192 h
[7] = Cytotoxicity against human NCE-G 112 cells measured after 8 days; type: functional, cell-based; conditions: NCE-G 112, 192 h
786-0 = test: Cytotoxicity against human 786-0 cells measured after 8 days; type: functional, cell-based; conditions: 786-0, 192 h
SK-N-BE(2)-M17 = test: Cytotoxicity against human SK-N-BE(2)-M17 cells measured after 8 days; type: functional, cell-based; conditions: SK-N-BE(2)-M17, 192 h
H322 = test: Cytotoxicity against human H322 cells measured after 8 days; type: functional, cell-based; conditions: NCI-H322, 192 h
[8] = Cytotoxicity against human 51BLim 10 cells measured after 8 days; type: functional, cell-based; conditions: 51BLim 10, 192 h
AM-38 = test: Cytotoxicity against human AM-38 cells measured after 8 days; type: functional, cell-based; conditions: AM-38, 192 h
LN-18 = test: Cytotoxicity against human LN-18 cells measured after 8 days; type: functional, cell-based; conditions: LN-18, 192 h
MeWo = test: Cytotoxicity against human MeWo cells measured after 8 days; type: functional, cell-based; conditions: 192 h
NB1 = test: Cytotoxicity against human NB1 cells measured after 8 days; type: functional, cell-based; conditions: NB1, 192 h
[9] = Cytotoxicity against human OVSAHO cells measured after 8 days; type: functional, cell-based; conditions: 192 h
[10] = Cytotoxicity against human PK-59 cells measured after 8 days; type: functional, cell-based; conditions: PK-59, 192 h
SJRH30 = test: Cytotoxicity against human SJRH30 cells measured after 8 days; type: functional, cell-based; conditions: SJRH30, 192 h
HCC1187 = test: Cytotoxicity against human HCC1187 cells measured after 8 days; type: functional, cell-based; conditions: HCC1187, 192 h
SISO = test: Cytotoxicity against human SISO cells measured after 8 days; type: functional, cell-based; conditions: 192 h
[11] = Cytotoxicity against human IGR-39 cells measured after 8 days; type: functional, cell-based; conditions: IGR-39, 192 h
[12] = Cytotoxicity against human JHH-2 cells measured after 8 days; type: functional, cell-based; conditions: JHH-2, 192 h
B16-F10 = test: Cytotoxicity against mouse B16-F10 Luciferase cells measured after 8 days; type: functional, cell-based; conditions: B16-F10, 192 h
SW626 = test: Cytotoxicity against human SW626 cells measured after 8 days; type: functional, cell-based; conditions: SW626, 192 h
[13] = Cytotoxicity against human PK-8 cells measured after 8 days; type: functional, cell-based; conditions: PK-8, 192 h
[14] = Cytotoxicity against human SNU-601 cells measured after 8 days; type: functional, cell-based; conditions: SNU-601, 192 h
MM1.S = test: Cytotoxicity against human MM1.S cells measured after 8 days; type: functional, cell-based; conditions: 192 h
Malme-3M = test: Cytotoxicity against human Malme-3M cells measured after 8 days; type: functional, cell-based; conditions: 192 h
HT55 = test: Cytotoxicity against human HT55 cells measured after 8 days; type: functional, cell-based; conditions: HT55, 192 h
COLO-680N = test: Cytotoxicity against human COLO-680N cells measured after 8 days; type: functional, cell-based; conditions: 192 h
C3A = test: Cytotoxicity against human C3A cells measured after 8 days; type: functional, cell-based; conditions: 192 h
[15] = Cytotoxicity against human SUM52PE cells measured after 8 days; type: functional, cell-based; conditions: 192 h
[16] = Cytotoxicity against human KATO III stomach cancer cell line measured after 8 days; type: functional, cell-based; conditions: 192 h
SIMA = test: Cytotoxicity against human SIMA cells measured after 8 days; type: functional, cell-based; conditions: 192 h
IMR-32 = test: Cytotoxicity against human IMR-32 cells measured after 8 days; type: functional, cell-based; conditions: IMR-32, 192 h
[17] = Cytotoxicity against human SKG-IIIb cells measured after 8 days; type: functional, cell-based; conditions: 192 h
[18] = Cytotoxicity against human KE-39 cells measured after 8 days; type: functional, cell-based; conditions: KE-39, 192 h
OAW-42 = test: Cytotoxicity against human OAW-42 cells measured after 8 days; type: functional, cell-based; conditions: OAW-42, 192 h
[19] = Cytotoxicity against human COLO 857 cells measured after 8 days; type: functional, cell-based; conditions: COLO 857, 192 h
[20] = Cytotoxicity against human COV434 cells measured after 8 days; type: functional, cell-based; conditions: COV434, 192 h
[21] = Cytotoxicity against human VMRC-RCW cells measured after 8 days; type: functional, cell-based; conditions: 192 h
[22] = Cytotoxicity against human Li-7 cells measured after 8 days; type: functional, cell-based; conditions: Li-7, 192 h
[23] = Cytotoxicity against mouse AE17 cells measured after 8 days; type: functional, cell-based; conditions: AE17, 192 h
[24] = Cytotoxicity against human HEC-88nu cells measured after 8 days; type: functional, cell-based; conditions: 192 h
KG-1 = test: Cytotoxicity against human KG-1 cells measured after 8 days; type: functional, cell-based; conditions: KG-1, 192 h
[25] = Cytotoxicity against human PaTu 8988s cells measured after 8 days; type: functional, cell-based; conditions: 192 h
LOX IMVI = test: Cytotoxicity against human LOX IMVI cells measured after 8 days; type: functional, cell-based; conditions: 192 h
[26] = Cytotoxicity against human U-87 MG cells measured after 8 days; type: functional, cell-based, U-87MG ATCC; conditions: 192 h
KYSE-520 cell line = test: Cytotoxicity against human KYSE520 cells measured after 8 days; type: functional, cell-based; conditions: KYSE-520, 192 h
BHY = test: Cytotoxicity against human BHY cells measured after 8 days; type: functional, cell-based; conditions: 192 h
[27] = Cytotoxicity against mouse Clone M-3 cells measured after 8 days; type: functional, cell-based; conditions: Clone M-3, 192 h

C/C=C/Cn1cc(-c2ccc(C(C)(C)O)cc2OC)c2cc[nH]c2c1=O
IC50 [1]: 20 µM
IC50 (Ca-Ski): 20 µM
IC50 [2]: 20 µM
IC50 [3]: 20 µM
IC50 (SK-HEP1): 20 µM
IC50 [4]: 20 µM
IC50 (A2780): 20 µM
IC50 [5]: 17.8 µM
IC50 (OE33): 20 µM
IC50 (G-401): 20 µM
IC50 (143B): 17.2 µM
IC50 (BXPC-3): 20 µM
IC50 (KYSE-150 cell line): 20 µM
Activity (PC-9): Dose-Dependent Effect
IC50 [6]: 20 µM
IC50 (OCI-AML-3): 20 µM
IC50 (SK-N-BE(2)): 20 µM
IC50 (KINGS-1): 20 µM
IC50 [7]: 20 µM
IC50 (786-0): 20 µM
IC50 (SK-N-BE(2)-M17): 20 µM
IC50 (H322): 20 µM
IC50 [8]: 20 µM
IC50 (AM-38): 20 µM
IC50 (LN-18): 13.7 µM
IC50 (MeWo): 20 µM
IC50 (NB1): 10.2 µM
IC50 [9]: 20 µM
IC50 [10]: 20 µM
IC50 (SJRH30): 20 µM
IC50 (HCC1187): 20 µM
IC50 (SISO): 20 µM
IC50 [11]: 20 µM
IC50 [12]: 20 µM
IC50 (B16-F10): 20 µM
IC50 (SW626): 20 µM
IC50 [13]: 20 µM
IC50 [14]: 20 µM
IC50 (MM1.S): 20 µM
IC50 (Malme-3M): 20 µM
IC50 (HT55): 20 µM
IC50 (COLO-680N): 20 µM
IC50 (C3A): 20 µM
IC50 [15]: 20 µM
IC50 [16]: 20 µM
IC50 (SIMA): 20 µM
IC50 (IMR-32): 20 µM
IC50 [17]: 20 µM
IC50 [18]: 20 µM
IC50 (OAW-42): 20 µM
IC50 [19]: 20 µM
IC50 [20]: 20 µM
IC50 [21]: 20 µM
IC50 [22]: 20 µM
IC50 [23]: 20 µM
IC50 [24]: 20 µM
IC50 (KG-1): 20 µM
IC50 [25]: 20 µM
IC50 (LOX IMVI): 20 µM
IC50 [26]: 20 µM
IC50 (KYSE-520 cell line): 14.4 µM
IC50 (BHY): 20 µM
IC50 [27]: 20 µM

C/C=C/Cn1cc(-c2ccc(C(=O)N3CCOCC3)cc2)c2cc[nH]c2c1=O
IC50 [1]: 20 µM
IC50 (Ca-Ski): 20 µM
IC50 [2]: 20 µM
IC50 [3]: 20 µM
IC50 (SK-HEP1): 20 µM
IC50 [4]: 20 µM
IC50 (A2780): 20 µM
IC50 [5]: 20 µM
IC50 (OE33): 20 µM
IC50 (G-401): 20 µM
IC50 (143B): 20 µM
IC50 (BXPC-3): 20 µM
IC50 (KYSE-150 cell line): 20 µM
Activity (PC-9): Dose-Dependent Effect
IC50 [6]: 20 µM
IC50 (OCI-AML-3): 11.3 µM
IC50 (SK-N-BE(2)): 20 µM
IC50 (KINGS-1): 20 µM
IC50 [7]: 20 µM
IC50 (786-0): 20 µM
IC50 (SK-N-BE(2)-M17): 20 µM
IC50 (H322): 20 µM
IC50 [8]: 12.2 µM
IC50 (AM-38): 20 µM
IC50 (LN-18): 20 µM
IC50 (MeWo): 20 µM
IC50 (NB1): 20 µM
IC50 [9]: 20 µM
IC50 [10]: 20 µM
IC50 (SJRH30): 20 µM
IC50 (HCC1187): 20 µM
IC50 (SISO): 20 µM
IC50 [11]: 20 µM
IC50 [12]: 20 µM
IC50 (B16-F10): 20 µM
IC50 (SW626): 20 µM
IC50 [13]: 20 µM
IC50 [14]: 20 µM
IC50 (MM1.S): 20 µM
IC50 (Malme-3M): 20 µM
IC50 (HT55): 20 µM
IC50 (COLO-680N): 20 µM
IC50 (C3A): 20 µM
IC50 [15]: 20 µM
IC50 [16]: 20 µM
IC50 (SIMA): 20 µM
IC50 (IMR-32): 20 µM
IC50 [17]: 20 µM
IC50 [18]: 20 µM
IC50 (OAW-42): 20 µM
IC50 [19]: 20 µM
IC50 [20]: 20 µM
IC50 [21]: 20 µM
IC50 [22]: 20 µM
IC50 [23]: 18.1 µM
IC50 [24]: 20 µM
IC50 (KG-1): 20 µM
IC50 [25]: 20 µM
IC50 (LOX IMVI): 20 µM
IC50 [26]: 20 µM
IC50 (KYSE-520 cell line): 20 µM
IC50 (BHY): 20 µM
IC50 [27]: 20 µM
